In the supplement of paper PMC10307832 one finds relative viability data, which are given here for 1 cell line.

What all share (experiment): relative viability (nuclei count vs DMSO), 5 days (fraction); higher = more cells survive
Compound in test [1]: O=S(=O)(c1ccccc1)N(CC(F)(F)F)c1ccc(C(O)(C(F)(F)F)C(F)(F)F)cc1 + CS(=O)(=O)N1CCN(Cc2cc3nc(-c4cccc5[nH]ncc45)nc(N4CCOCC4)c3s2)CC1 [Pictilisib] (partner 1 µM)
The gist of the method: (§1)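 The day after seeding in 1536-well plates, lung cancer cell lines were treated by pin tool with a single drug, or with a fixed anchor-drug dose together with five library-drug doses (not always all listed) in √10 steps. After 5 days, a combined fix-and-stain solution (final 0.05% Triton X-100, 1% formaldehyde, 1 ug/ml Hoechst) was added. Nuclei counted on 4× images gave relative viability as treated counts over vehicle counts, reported as the median of duplicate plates.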

Compound in test [2]: O=S(=O)(c1ccccc1)N(CC(F)(F)F)c1ccc(C(O)(C(F)(F)F)C(F)(F)F)cc1 + C[C@]1(O)C[C@@H](c2nc(-c3ccc4ccc(-c5ccccc5)nc4c3)c3c(N)nccn32)C1 [Linsitinib] (partner 1 µM)
The gist of the method:
as §1

Compound in the test “RO-3306 + Decitabine”: C1=CC2=C(C=CC(=C2)C=C3C(=O)NC(=NCC4=CC=CS4)S3)N=C1 [RO-3306] + Nc1ncn([C@H]2C[C@H](O)[C@@H](CO)O2)c(=O)n1 [Decitabine] (partner 2 µM)
The gist of the method: as §1

Compound in the test “RO-3306 + Lapatinib”: C1=CC2=C(C=CC(=C2)C=C3C(=O)NC(=NCC4=CC=CS4)S3)N=C1 [RO-3306] + CS(=O)(=O)CCNCc1ccc(-c2ccc3ncnc(Nc4ccc(OCc5cccc(F)c5)c(Cl)c4)c3c2)o1 [Lapatinib] (partner 2 µM)
The gist of the method:
as §1

Regarding UMC-11, the relative viability in test [1] (first compound 0.8 µM) came to 0.908; in test [1] (first compound 2.53 µM) it was 0.867; in test [1] (first compound 8 µM) it was 1.14; in test [2] (first compound 0.8 µM) it was 1.13; in test [2] (first compound 2.53 µM), 1.08; in test [2] (first compound 8 µM), 1.13. For the same cell line, the relative viability was found to be 0.569 with RO-3306 + Decitabine (first compound 0.01 µM); 0.58 with RO-3306 + Decitabine (first compound 0.03162 µM); 0.613 with RO-3306 + Decitabine (first compound 0.1 µM); 0.607 with RO-3306 + Decitabine (first compound 0.3162 µM); 0.583 with RO-3306 + Decitabine (first compound 1 µM); 1.06 in the test with RO-3306 + Lapatinib (first compound 0.01 µM). Besides, the relative viability in the test with RO-3306 + Lapatinib (first compound 0.03162 µM) was determined as 0.676; in the test with RO-3306 + Lapatinib (first compound 0.1 µM) it was 0.829; with RO-3306 + Lapatinib (first compound 0.3162 µM), 0.971; with RO-3306 + Lapatinib (first compound 1 µM) it was 0.671.
